Assay [1] deals with formalin-induced spontaneous pain behaviors. Type of assay: in vivo, mice.
For another assay, the system named is acute heat pain response. The format is in vivo, mice.
The subject of assay [2] is CFA-induced mechanical allodynia. Further details: species or system mice. To be noted: mouse, in vivo.
Assay [3] concerns capsaicin-induced nociceptive behavior. The assay is described as follows: Capsaicin-induced nociception. The format is in vivo, mice. Conditions: 100 μg/kg i.m., 30 min before intraplantar capsaicin 1 μg; 5-min observation. The procedure: On the day of testing, ICR male mice were treated by intramuscular injection with equal volume of saline, H4 (10 and 30 μg/kg i.m.), or a positive control in the form of the potent Nav1.7 antagonist PF-05198007 (100 μg/kg i.m.) ([35]). Thirty minutes following test article treatment, animals were subjected to intraplantar injection of 1 μg of capsaicin in a volume of 20 μl of 5% EtOH in saline into the right hind paw. Immediately after the capsaicin injection, the total time spent engaged in licking of the injected hind paw was manually recorded over a 5-min period. All dosing and scoring activities were conducted by experimenters who were fully blinded to treatment conditions.

The subject of another assay is hNav1.7 mutants. Type of assay: cell-based, human.

Like-named read-outs stand apart in the source and are kept apart here.

As to `CN1CC[C@]23c4c5ccc(O)c4O[C@H]2[C@@H](O)C=C[C@H]3[C@H]1C5` [morphine], in assay [1] (mouse, in vivo), the “paw licking time, early phase” value amounted to 110.3 ± 12.9 s and the “paw licking time, late phase” value came to 86.7 ± 8.5 s. The molecule also yielded a hot plate latency in the assay on acute heat pain response (mouse, in vivo, SD) of 17.0 ± 0.9 s. Besides, in assay [2], the “duration of anti-allodynic effect” value is given as 2 h and the “paw withdrawal threshold compared with saline (in words)” value is reported as “significantly enhanced”.
As to `Nc1[nH]ncc1-c1cc(Cl)ccc1Oc1cc(F)c(S(=O)(=O)Nc2cscn2)cc1Cl` [PF-05089771], the “capsaicin-elicited paw licking response (in words)” value in assay [3] is given as “significantly blocked”.
On to Hainantoxin-III [Compound 1], for which, in the assay with hNav1.7 mutants, the “affinity for hNav1.7 mutants versus WT hNav1.7 (in words)” value is recorded as “did not change significantly”. For the same molecule, the “paw licking time, early phase” value in assay [1] (100 μg/kg i.m., 30 min before formalin, early phase 0-10 min, control 145.2 ± 6.9 s) is on record as 68.1 ± 9.7 s. In assay [1] (100 μg/kg i.m., 30 min before formalin, late phase 15-35 min, control 224 ±16.7 s), the “paw licking time, late phase” value is given as 71.0 ± 13.0 s. In the assay on acute heat pain response (100 μg/kg i.p., 1 h after treatment, plate 55 °C, mean ± SD, n = 5 to 8), the hot plate latency is given as 15.1 ± 0.9 s.

The record behind these values is article PMC7988488 (The Journal of Biological Chemistry, 2021).
